Legend:
[1] = target: T1, FAK (Homo sapiens, UniProt Q05397); experiment: FAK autophosphorylation inhibition, time-resolved fluorescence test (HTRF); assay type: biochemical; details: autophosphorylation of His-tagged human FAK, 15 μM ATP, 1 hour at 37° C.
T1 construct: The whole cDNA of human FAK; made in house; host or cells: baculovirus expression (pFastBac HTc)
Protocol: The inhibitory activity of the compounds on FAK is determined by measuring the inhibition of autophosphorylation of the enzyme using a time-resolved fluorescence test (HTRF).
The whole cDNA of human FAK, the N-terminal end of which has been labelled with histidine, was cloned in a pFastBac HTc baculovirus expression vector. The protein was expressed and purified to about 70% homogeneity.
The kinase activity is determined by incubating the enzyme (6.6 μg/ml) with different concentrations of test compound in a 50 mM Hepes pH=7.2, 10 mM MgCl2, 100 μm Na3VO4, 15 μM ATP buffer for 1 hour at 37° C. The enzymatic reaction is stopped by adding Hepes pH=7.0 buffer containing 0.4 mM KF, 133 mM EDTA, 0.1% BSA and the labelling is performed, for 1 to 2 hours at room temperature, by adding to this buffer an anti-Histidine antibody labelled with XL665 and a tyrosine phosphospecific monoclonal antibody conjugated to europium cryptate (Eu—K). The characteristics of the two fluorophores are available in G. Mathis et al., Anticancer Research, 1997, 17, pages 3011-3014. The energy transfer from the excited europium cryptate to the acceptor XL665 is proportional to the degree of autophosphorylation of FAK. The long-lasting signal specific for XL-665 is measured in a Packard Discovery plate counter. All the tests are performed in duplicate and the average of the two tests is calculated. The inhibition of the autophosphorylation activity of FAK with compounds of the invention is expressed as a percentage of inhibition relative to a control whose activity is measured in the absence of test compound. To calculate the percentage inhibition, the ratio [signal at 665 nm/signal at 620 nm] is considered.

[2] = target: T2, KDR (Homo sapiens, UniProt P35968); experiment: KDR substrate phosphorylation test, scintillation technique; assay type: biochemical; details: GST-KDR cytoplasmic domain, PLCγ SH2-SH3 substrate, 33P-ATP, 1 hour at 37° C.
T2 construct: The cytoplasmic domain of the human KDR enzyme; GST; made in house; host or cells: SF21 insect cells (baculovirus, pFastBac)
T2 sequence (P35968 786-1356 limits assumed): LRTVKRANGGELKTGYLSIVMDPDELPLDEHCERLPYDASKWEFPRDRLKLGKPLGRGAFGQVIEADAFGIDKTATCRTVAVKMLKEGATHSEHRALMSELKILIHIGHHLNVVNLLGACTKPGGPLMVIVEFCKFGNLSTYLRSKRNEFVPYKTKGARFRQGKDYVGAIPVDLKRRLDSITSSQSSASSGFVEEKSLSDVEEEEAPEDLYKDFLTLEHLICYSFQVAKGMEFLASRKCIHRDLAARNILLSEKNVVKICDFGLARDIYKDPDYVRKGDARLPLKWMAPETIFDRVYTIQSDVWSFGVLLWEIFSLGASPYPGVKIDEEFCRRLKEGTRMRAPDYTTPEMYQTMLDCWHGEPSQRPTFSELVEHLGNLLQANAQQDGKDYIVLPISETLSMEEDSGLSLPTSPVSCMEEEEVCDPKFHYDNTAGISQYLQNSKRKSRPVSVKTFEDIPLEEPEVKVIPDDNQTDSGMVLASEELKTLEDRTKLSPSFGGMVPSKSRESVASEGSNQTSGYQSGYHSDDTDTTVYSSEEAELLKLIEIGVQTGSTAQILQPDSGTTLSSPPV
Protocol: The inhibitory effect of the compounds is determined in an in vitro test of phosphorylation of substrate with the enzyme KDR via a scintillation technique (96-well plate, NEN).
The cytoplasmic domain of the human KDR enzyme was cloned in the form of a GST fusion in the pFastBac baculovirus expression vector. The protein was expressed in the SF21 cells and purified to about 60% homogeneity.
The KDR kinase activity is measured in 20 mM MOPS, 10 mM MgCl2, 10 mM MnCl2, 1 mM DTT, 2.5 mM EGTA, 10 mM b-glycerophosphate, pH=7.2, in the presence of 10 mM MgCl2, 100 μm Na3VO4, 1 mM NaF. 10 μl of the compound are added to 70 μl of kinase buffer containing 100 ng of KDR enzyme at 4° C. The reaction is initiated by adding 20 μl of solution containing 2 μg of substrate (SH2-SH3 fragment of PLCγ expressed in the form of a GST fusion protein), 2 μCi of γ^33P[ATP] and 2 μm of cold ATP. After incubation for 1 hour at 37° C., the reaction is stopped by adding 1 volume (100 μl) of 200 mM EDTA. The incubation buffer is removed, and the wells are washed three times with 300 μl of PBS. The radioactivity in each well is measured using a Top Count NXT radioactivity counter (Packard).
The background noise is determined by measuring the radioactivity in four different wells containing radioactive ATP and the substrate alone.
A total activity control is measured in four different wells containing all the reagents (γ^33P-[ATP], KDR and substrate PLCγ), but in the absence of compound.
The inhibition of the KDR activity with the compound of the invention is expressed as a percentage of inhibition of the control activity determined in the absence of compound.
Compound SU5614 (Calbiochem) (1 μM) is included in each plate as an inhibition control.

[3] = target: T3, Aurora B (Homo sapiens, UniProt Q96GD4); experiment: Aurora1 (Aurora-B/INCENP-C3 complex) enzymatic test, NuMA substrate phosphorylation, radioactivity detection; assay type: biochemical; details: 10 nM Aurora1 (Aurora-B/INCENP-C3), 500 nM NuMA, 1 μM ATP, 30 minutes, 37° C.; read-out: IC 50 Aurora B
T3 construct: His (N); made in house
T3 sequence (Q96GD4 whole entry): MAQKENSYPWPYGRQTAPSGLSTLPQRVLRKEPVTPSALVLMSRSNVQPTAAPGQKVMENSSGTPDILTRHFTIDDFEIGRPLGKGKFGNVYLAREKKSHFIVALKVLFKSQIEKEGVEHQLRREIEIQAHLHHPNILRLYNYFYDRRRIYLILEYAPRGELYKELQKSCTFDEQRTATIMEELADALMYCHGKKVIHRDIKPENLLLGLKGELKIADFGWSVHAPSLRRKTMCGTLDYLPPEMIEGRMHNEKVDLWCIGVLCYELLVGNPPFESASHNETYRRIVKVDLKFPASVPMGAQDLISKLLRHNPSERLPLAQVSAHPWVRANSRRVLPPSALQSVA
T3 sequence (Q9NQS7 826-900 partner limits assumed): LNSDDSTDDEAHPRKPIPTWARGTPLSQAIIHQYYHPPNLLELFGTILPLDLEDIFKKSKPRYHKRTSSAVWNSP
Protocol: The inhibitory effect of compounds with respect to the kinases Aurora1 and Aurora2 is determined by means of an enzymatic test using radioactivity detection.
The kinase activity of Aurora1 and Aurora2 is evaluated via the phosphorylation of the substrate Numa-histidine in the presence of radiolabelled ATP ([^33P]ATP) using 96-well Flashplate plates in which the nickel chelate is bound to the surface of the microplate. The amount of ^33P phosphate incorporated into the NuMA substrate is proportional to the activity of the enzyme Aurora1 or Aurora2.
Aurora1: Aurora-B/INCENP-C3 recombinant complex, purified to about 50%, the N-terminal end of Aurora-B of which has been labelled with histidine.
NuMA (nuclear protein that combines with the mitotic apparatus): 424-amino acid fragment, expressed in E. coli, the N-terminal end of which has been labelled with histidine, and used as substrate for the two Aurora enzymes.
The microplates used are 96-well Flash-Plate plates, nickel chelate (Perkin-Elmer, model SMP107).
The products to be evaluated are incubated in a reaction volume of 100 μL per well, in the presence of 10 nM of Aurora1 or Aurora2, 500 nM of NuMA substrate in a buffer composed of 50 mM Tris/HCl (pH 7.5), 50 mM NaCl, 5 mM MgCl2 (Aurora-B) or 10 mM MgCl2 (Aurora-A) and 1 mM DTT, at 37° C.
80 μL of enzyme/substrate incubation buffer are distributed in each well, followed by 10 μL of product to be evaluated, at variable concentrations. The reaction is initiated by adding 1 μM final of ATP containing 0.2 μCi of [^33P]ATP (10 μL). After incubating for 30 minutes, the reaction is quenched by simple removal of the reaction buffer and each well is washed twice with 300 μl of Tris/HCl buffer. The radioactivity is then measured in each well using a Packard, Top-Count model scintillation machine.
The control enzymatic activity of Aurora is expressed by the number of counts per minute obtained over 30 minutes after subtracting the background noise (reaction mixture containing no enzyme). The evaluation of the various test products is expressed as a percentage of inhibition of the Aurora activity relative to the control.

T1 sequence (Q05397 whole entry): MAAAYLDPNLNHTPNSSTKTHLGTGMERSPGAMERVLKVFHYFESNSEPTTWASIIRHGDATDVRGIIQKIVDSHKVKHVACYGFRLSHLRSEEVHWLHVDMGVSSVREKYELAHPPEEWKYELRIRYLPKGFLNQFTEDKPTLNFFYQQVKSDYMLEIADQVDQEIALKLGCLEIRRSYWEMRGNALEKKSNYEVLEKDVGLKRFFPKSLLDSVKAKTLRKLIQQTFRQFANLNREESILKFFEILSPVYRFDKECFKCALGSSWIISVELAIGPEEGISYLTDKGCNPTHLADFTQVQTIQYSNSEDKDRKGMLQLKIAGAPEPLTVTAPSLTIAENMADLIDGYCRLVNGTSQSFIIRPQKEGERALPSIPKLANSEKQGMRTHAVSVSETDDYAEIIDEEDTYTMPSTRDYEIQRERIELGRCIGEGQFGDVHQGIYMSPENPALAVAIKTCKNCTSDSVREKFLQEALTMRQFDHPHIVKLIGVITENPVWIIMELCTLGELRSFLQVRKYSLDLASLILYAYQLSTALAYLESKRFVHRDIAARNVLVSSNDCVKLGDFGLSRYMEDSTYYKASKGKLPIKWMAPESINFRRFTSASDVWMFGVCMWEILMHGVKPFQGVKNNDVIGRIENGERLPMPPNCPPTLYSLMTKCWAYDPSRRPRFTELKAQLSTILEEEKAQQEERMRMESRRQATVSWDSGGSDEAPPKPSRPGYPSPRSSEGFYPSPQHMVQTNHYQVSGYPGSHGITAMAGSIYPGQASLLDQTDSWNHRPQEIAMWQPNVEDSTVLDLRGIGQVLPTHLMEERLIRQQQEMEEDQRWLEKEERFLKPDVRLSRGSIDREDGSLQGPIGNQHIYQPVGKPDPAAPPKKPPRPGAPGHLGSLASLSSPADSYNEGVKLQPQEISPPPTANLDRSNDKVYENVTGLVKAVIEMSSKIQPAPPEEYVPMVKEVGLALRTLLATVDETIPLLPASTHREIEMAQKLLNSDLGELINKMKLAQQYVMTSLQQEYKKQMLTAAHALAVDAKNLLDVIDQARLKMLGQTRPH

| SMILES | IC50 [1] [nM] | IC50 [2] [nM] | IC50 [3] [nM] | melting point [°C] |
| --- | --- | --- | --- | --- |
| COc1ccc(C)cc1NC(=O)Nc1ccc(-c2c(C(N)=O)[nH]c3cnccc23)cc1 [Example 2, 3-{4-[3-(2-Methoxy-5-methylphenyl)ureido]phenyl}-1H-pyrrolo[2,3-c]pyridine-2-carboxamide] | 299 | 150 | 196 | 227 |
| Cc1ccc(F)c(NC(=O)Nc2ccc(-c3c(C(N)=O)[nH]c4cnccc34)cc2)c1.O=C(O)C(F)(F)F [Example 5, 3-{4-[3-(2-Fluoro-5-methylphenyl)ureido]phenyl}-1H-pyrrolo[2,3-c]pyridine-2-carboxamide trifluoroacetate] | 249 | 258 | 67 | 222 |
| NC(=O)c1[nH]c2ncccc2c1-c1ccc(NC(=O)Nc2cc(C(F)(F)F)ccc2F)cc1 [Example 7, 3-{4-[3-(2-Fluoro-5-trifluoromethylphenyl)ureido]phenyl}-1H-pyrrolo[2,3-b]pyridine-2-carboxamide] | 184 | 34 | 133 | 232 |
| NC(=O)c1[nH]c2cnccc2c1-c1ccc(NC(=O)Nc2cc(C(F)(F)F)ccc2F)cc1 [Example 1, 3-{4-[3-(2-Fluoro-5-trifluoromethylphenyl)ureido]phenyl}-1H-pyrrolo[2,3-c]pyridine-2-carboxamide] | 164 | 29 | 138 | 286 |

From US7947706B2, “Substituted pyrrolopyridines, compositions containing them, manufacturing process therefor and use thereof” (Sanofi-Aventis Deutschland GmbH, priority 2005, dated 2011)
